Measurements from US20110189174A1, “COMPOSITIONS AND METHODS FOR TREATING, REDUCING, AMELIORATING, ALLEVIATING, OR INHIBITING PROGRESSION OF, PATHOGENIC OCULAR NEOVASCULARIZATION” (priority 2010, published 2011).
Several values for one entry are separate records, joined by “and”; a condition that tells them apart may be missing. Identical values can stand only once. Marks after values point to notes of the source that are not given here.

Key:
[1] = system: human retinal endothelial cells (HREC); assay: Testing 7: VEGF-induced HREC proliferation (MTS assay), integrin antagonists and Lucentis alone and in combination; format: cell-based
Method: HREC were first cultured overnight in a 96-well plate coated with fibronectin. The next day medium containing different agents as shown in Tables 14 and 15 was pre-incubated for 1 hour before being added into appropriate wells. The cells were cultured at 37° C., 5% CO2, and 95% humidity for another 3 days. After that, cell proliferation was estimated by the MTS assay. In the first study we used VEGF 10 ng/mL (about EC80 in study PH08169), Lucentis® 1 ng/mL (about EC25 in study PH09038) and 5 doses of BOL-303055-X. Normal IgG (1 ng/ml) was also added to groups containing no Lucentis®. All groups contained the same amount of 0.1% DMSO. In the second study, all five compounds (BOL-303049-X, BOL-303050-X, BOL-303051-X, BOL-303054-X and BOL-303055-X) were tested at 1 nM with other conditions remaining the same.
A 96-well plate was coated with human fibronectin (10 μg/mL) for 5 hours at 37° C. HREC were washed with HBSS buffer once, tripsinized and re-suspended in 10% FBS CS-C medium at 18,000 cells/mL. Cells (200 μL) were added to the plate and cultured overnight at 37° C., 5% CO2, and 95% humidity. Next day, the cells were serum-starved for 2 hours.
For study I, VEGF at 10 ng/mL, Lucentis® at 1 ng/mL and BOL-303055-X at 0.1, 0.3, 1, 3 and 10 nM were prepared in 1% FBS CS medium as shown in Table 14. Normal IgG (1 ng/mL) were added to groups containing no Lucentis®. All medium solutions were incubated for 1 hour at 37° C. After carefully medium was aspirated, 200 μL of the medium containing different agents were then added into appropriate wells. The cells were cultured for another 3 days. For the study II as shown in the Table 15, five compounds were tested at 1 nM with other conditions remaining the same as study I.
At the end of incubation, the medium was carefully aspirated from cells and 120 μl of MTS working solution was added into all wells including blank wells (without cells). The plates were incubated at 37° C., 5% CO2, and 95% humidity for 1 hour and then read by a plate reader at 490 nm wavelength.
Median optical density (OD) was generated from different groups. Data were expressed as mean±SEM of the OD values. Statistical analysis was performed using three-way ANOVA after Box-Cox transformations, and p<0.05 was considered statistically significant. To evaluate whether the effects of the combinations were either synergistic or additive, net inhibitions were calculated by subtracting the basal levels in the presence of VEGF from the individual treatments (Lucentis® and Integrin blockers) and the combinations. […] Data analysis was performed utilizing the statistical analysis software JMP (SAS Institute, Cary, N.C.).

[2] = system: laser-induced CNV in monkeys; assay: Laser-induced choroidal neovascularization in monkeys, fluorescein angiography lesion grading; format: in vivo, cynomolgus monkeys (Macaca fascicularis); details: for Incidence of CNV lesions, Lesion Grade I (% Total) / Incidence of CNV lesions, Lesion Grade II (% Total) / Incidence of CNV lesions, Lesion Grade III (% Total) / Incidence of CNV lesions, Lesion Grade IV (% Total): intravitreal, both eyes, days 1 and 15, 1.5 mg/eye (Lucentis 0.5 mg/eye); for Overall grade IV lesions versus vehicle control group: all time points together, Chi square test; for Incidence of grade IV lesions compared to vehicle control: days 22, 29 and 37, 1.5 mg/eye in oil formulation; for Overall Grade IV lesions (%): days 22, 29 and 37 summed, 1.5 mg/eye intravitreal days 1 and 15
Method: Study was performed in three phases. In phases Ia and Ib, the behavior of the suspension in aqueous (Ia) and oil (Ib) formulations, and multiple dosing regimens as well as any adverse effect due to multiple dosing at 3 mg/eye (Ia) or 1.5 (Ib) were investigated. In phase II test articles were administered twice during the study period on days 1 and 15. Eyes were examined with an indirect ophthalmoscope and fundus camera.
Adult male cynomolgus monkeys (Macaca fascicularis) age 2-7 years old were used to test the efficacy of BOL-303050-X, BOL-303054-X and BOL-303055-X. Lucentis® (ranibizumab) was used as historic control.
Both eyes of 46 monkeys were examined at baseline and then 42 animals were randomized into 5 groups. On Phase II Day 8 of Dosing, the animals were anesthetized with ketamine and dexmedetomidine and the macula of each eye of the animals in Groups 1 through […] underwent laser treatment by a retinal surgeon with a 532 nm diode green laser (OcuLight GL, IRIDEX Corp. Inc., Mountain View, Calif.) using a slit lamp delivery system and a Kaufman-Wallow (Ocular Instruments Inc, Bellevue, Wash.) plano fundus contact lens with Gonak (2.5%) as the coupling agent. Nine laser spot areas were symmetrically placed in the macula of each eye. The laser parameters included a 75 micron spot size and 0.1 second duration. The power setting used was assessed by the ability to produce a blister and a small hemorrhage. […] For areas not adjacent to the fovea, the initial power setting was 500 mW; if a second spot was placed, the power was set to 650 mW. For the area adjacent to the fovea the power settings were 400 mW (initial treatment) and 550 mW (second treatment). At the discretion of the retinal surgeon, power settings were adjusted based on observations at the time of laser. Power setting used for each spot was documented as well as number of burns per spot and whether hemorrhage occurred.
Once the phase Ib study was completed, and it was established that the drug suspension in oil would not interfere with either laser administration, evaluation of CNV or cause adverse effects, phase II was initiated. On days 1, and 15 both eyes of monkeys received 50 μL of Lucentis (0.5 mg/eye), vehicle (0 mg/eye), BOL-303050-X (1.5 mg/eye), BOL-303054-X (1.5 mg/eye) or BOL-303055-X (1.5 mg/eye) (Table 2). Intravitreous injection was performed for each by eye aiming towards mid-vitreous body. Dosing in the right eye was alternated for successive doses (as applicable) at approximately the 11 o'clock and 10 o'clock positions. Dosing in the left eye was alternated for successive doses (as applicable) from approximately the 1 o'clock and 2 o'clock positions.
Animals were anesthetized with ketamine and dexmedetomidine. A topical anesthetic (0.5% proparacaine) was instilled in each eye before dose administration. A wire speculum was used to retract the eyelids. The eyes were cleaned with a 2.5% povidone iodine solution and then rinsed with sterile saline. Each animal was dosed using 1 cc tuberculin syringes and 30 gauge needles.
FA was performed at baseline, on days 22, 29 and 37 (approximately 14, 21 and 28 days post-laser). Digital ocular photographs were taken in conjunction with FA. The FA procedure is well known by people skilled in the art of ophthalmology.
Evaluation of FA was done according to the following grading system for evidence of excessive permeability (fluorescein leakage) or any other abnormalities.
Grade IV lesions are considered to be clinically significant as these most closely resemble the active forms of classical CNV seen in various human retinal disorders, including age-related macular degeneration. Comparison of the incidence of Grade IV lesions between treatment groups was evaluated.
Grade IV lesions were analyzed using either Fisher's exact probability test (2-Tail) or Chi square test (χ2). […]

[3] = study II, compound 1 nM, Lucentis 1 ng/mL

## COc1ccc(S(=O)(=O)N[C@@H](CNc2nc(C)nc(N3CCC(c4ccc5c(n4)NCCC5)CC3)c2C)C(=O)O)cc1 [BOL-303050-X]
[1]; [3]
  Combination effect with Lucentis on VEGF-induced HREC proliferation (synergistic/additive): additive effects
[2]; Day 22
  Incidence of CNV lesions, Lesion Grade I (% Total): 126:148 (85.14) %
  Incidence of CNV lesions, Lesion Grade II (% Total): 12:148 (8.11) %
  Incidence of CNV lesions, Lesion Grade III (% Total): 4:148 (2.70) %
  Incidence of CNV lesions, Lesion Grade IV (% Total): 4.05% and 6:148 (4.05) %
[2]; Day 29
  Incidence of CNV lesions, Lesion Grade I (% Total): 132:150 (88.00) %
  Incidence of CNV lesions, Lesion Grade II (% Total): 11:150 (7.33) %
  Incidence of CNV lesions, Lesion Grade III (% Total): 3:150 (2.00) %
  Incidence of CNV lesions, Lesion Grade IV (% Total): 2.67% and 4:150 (2.67) %
[2]; Day 37
  Incidence of CNV lesions, Lesion Grade I (% Total): 136:162 (83.95) %
  Incidence of CNV lesions, Lesion Grade II (% Total): 15:162 (9.26) %
  Incidence of CNV lesions, Lesion Grade III (% Total): 8:162 (4.94) %
  Incidence of CNV lesions, Lesion Grade IV (% Total): 1.85% and 3:162 (1.85) %
[2]
  Overall grade IV lesions versus vehicle control group: significantly reduced
  Incidence of grade IV lesions compared to vehicle control: reduced compared to vehicle-treated eyes
  Overall Grade IV lesions (%): (2.83)* %

## COc1c(NC[C@H](NC(=O)OCc2ccccc2)C(=O)O)ncnc1N1CCC(c2ccc3c(n2)NCCC3)CC1 [BOL-303054-X]
[1]; [3]
  Combination effect with Lucentis on VEGF-induced HREC proliferation (synergistic/additive): additive effects
[2]; Day 22
  Incidence of CNV lesions, Lesion Grade I (% Total): 79:133 (59.40) %
  Incidence of CNV lesions, Lesion Grade II (% Total): 1:133 (0.75) %
  Incidence of CNV lesions, Lesion Grade III (% Total): 8:133 (6.01) %
  Incidence of CNV lesions, Lesion Grade IV (% Total): 45:133 (33.83) %
[2]; Day 29
  Incidence of CNV lesions, Lesion Grade I (% Total): 80:133 (60.15) %
  Incidence of CNV lesions, Lesion Grade II (% Total): 5:133 (3.76) %
  Incidence of CNV lesions, Lesion Grade III (% Total): 2:133 (1.50) %
  Incidence of CNV lesions, Lesion Grade IV (% Total): 46:133 (34.59) %
[2]; Day 37
  Incidence of CNV lesions, Lesion Grade I (% Total): 83:136 (61.03) %
  Incidence of CNV lesions, Lesion Grade II (% Total): 6:136 (4.41) %
  Incidence of CNV lesions, Lesion Grade III (% Total): 5:136 (3.68) %
  Incidence of CNV lesions, Lesion Grade IV (% Total): 41:136 (30.15) %
[2]
  Overall grade IV lesions versus vehicle control group: not statistically significant
  Incidence of grade IV lesions compared to vehicle control: higher incidences of grade IV lesions compared to the vehicle control
  Overall Grade IV lesions (%): (32.84) %

## CCc1nc(NC[C@H](NC(=O)OCc2ccccc2)C(=O)O)c(C)c(N2CCC(c3ccc4c(n3)NCCC4)CC2)n1 [BOL-303055-X]
[1]; basal and Lucentis-treatment conditions, Lucentis 1 ng/mL, BOL-303055-X 0.1-10 nM, other compounds 1 nM
  HREC proliferation without VEGF: reduced HREC proliferation in a statistically significant and dose-dependent manner
[1]; study I, 0.1, 0.3, 1, 3 and 10 nM, Lucentis 1 ng/mL
  Inhibiting effect on VEGF-induced HREC proliferation in the presence of Lucentis versus without: significantly greater inhibiting effect
[1]; study I, 0.1-10 nM, VEGF 10 ng/mL
  Inhibition of VEGF-induced HREC proliferation, compound alone: inhibited VEGF-induced HREC proliferation in a dose-dependent manner
[1]; study I, compound 0.1 nM, Lucentis 1 ng/mL
  Combination effect with Lucentis on VEGF-induced HREC proliferation (synergistic/additive): synergistic effects
[1]; study I, compound 0.3 nM, Lucentis 1 ng/mL
  Combination effect with Lucentis on VEGF-induced HREC proliferation (synergistic/additive): additive
[1]; study I, compound 1, 3 and 10 nM, Lucentis 1 ng/mL
  Combination effect with Lucentis on VEGF-induced HREC proliferation (synergistic/additive): additive
[1]; [3]
  Combination effect with Lucentis on VEGF-induced HREC proliferation (synergistic/additive): additive effects
[2]; Day 22
  Incidence of CNV lesions, Lesion Grade I (% Total): 73:162 (45.06) %
  Incidence of CNV lesions, Lesion Grade II (% Total): 6:162 (3.7) %
  Incidence of CNV lesions, Lesion Grade III (% Total): 6:162 (3.70) %
  Incidence of CNV lesions, Lesion Grade IV (% Total): 47.53% and 77:162 (47.53) %
[2]; Day 29
  Incidence of CNV lesions, Lesion Grade I (% Total): 75:162 (46.3) %
  Incidence of CNV lesions, Lesion Grade II (% Total): 5:162 (3.09) %
  Incidence of CNV lesions, Lesion Grade III (% Total): 12:162 (7.41) %
  Incidence of CNV lesions, Lesion Grade IV (% Total): 43.21% and 70:162 (43.21) %
[2]; Day 37
  Incidence of CNV lesions, Lesion Grade I (% Total): 80:162 (49.38) %
  Incidence of CNV lesions, Lesion Grade II (% Total): 7:162 (4.32) %
  Incidence of CNV lesions, Lesion Grade III (% Total): 5:162 (3.68) %
  Incidence of CNV lesions, Lesion Grade IV (% Total): 44.44% and 72:162 (44.44) %
[2]
  Overall grade IV lesions versus vehicle control group: significantly increased
  Incidence of grade IV lesions compared to vehicle control: higher incidences of grade IV lesions compared to the vehicle control
  Overall Grade IV lesions (%): (45.06)* %
